Starred links: 1 amine or outer side, 2 acyl side, 3 side chain; linkers in the order of their positions; H or OH if unused. Non-standard residues stand in square brackets, D forms with d. Residues, ends and D or L forms follow the SMILES beside them. ξ: configuration not given here. Dip = N[C@H](C(=O)O)C(c1ccccc1)c1ccccc1; 2Nal = N[C@@H](Cc1ccc2ccccc2c1)C(=O)O; Cha = N[C@@H](CC1CCCCC1)C(=O)O; Ile(3ξ) = CCC(C)[C@H](N)C(=O)O; Chg = N[C@H](C(=O)O)C1CCCCC1; Suc = O=C(CCC(=O)[*:2])[*:1]
Molecular target: T1, Genome polyprotein (Hepacivirus hominis, UniProt Q04045)
T1 sequence (Q04045 whole entry): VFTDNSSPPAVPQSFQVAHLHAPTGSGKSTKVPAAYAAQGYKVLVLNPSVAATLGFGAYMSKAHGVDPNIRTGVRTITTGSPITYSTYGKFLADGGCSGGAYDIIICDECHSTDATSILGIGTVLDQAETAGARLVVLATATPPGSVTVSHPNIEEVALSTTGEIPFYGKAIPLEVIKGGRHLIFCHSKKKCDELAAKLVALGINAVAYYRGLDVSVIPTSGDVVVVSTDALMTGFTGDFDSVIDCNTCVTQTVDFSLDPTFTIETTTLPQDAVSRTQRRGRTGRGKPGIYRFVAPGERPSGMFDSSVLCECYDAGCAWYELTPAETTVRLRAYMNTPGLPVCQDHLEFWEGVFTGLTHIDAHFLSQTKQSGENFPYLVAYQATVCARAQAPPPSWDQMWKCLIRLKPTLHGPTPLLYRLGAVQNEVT
Test: Competitive Inhibition Assay
Experimental: Analysis of the inhibition activation of flNS3 by the inhibitors was performed with the standard assay, allowing the inhibitor to preincubate with NS3 and NS4 for 15 min. prior to addition of substrate.

SMILES	Ki [µM]
O=C(O)CCC(=O)N[C@H](C(=O)N[C@@H](CCC(=O)O)C(=O)N[C@@H](CCC(=O)O)C(=O)N[C@@H](CS)C(=O)O)C(c1ccccc1)c1ccccc1 [NS3 Protease Inhibitor, 3] (Suc-[Dip]EEC-OH)	0.52
COc1ccc2c(O[C@@H]3C[C@H]4C(=O)N[C@]5(C(=O)O)C[C@H]5/C=C\CCCCC[C@H](NC(=O)OC5CCCC5)C(=O)N4C3)cc(-c3csc(NC(C)C)n3)nc2c1	0.00012
CCC(C)[C@H](NC(=O)[C@@H](NC(=O)CCC(=O)O)C1CCCCC1)C(=O)N[C@@H](CC1CCCCC1)C(=O)N[C@@H](CS)C(=O)O (stereo partly specified) [NS3 Protease Inhibitor, 1] (Suc-[Chg][Ile(3ξ)][Cha]C-OH)	0.33
C=CC1C[C@]1(NC(=O)[C@@H](NC(=O)C(NC(=O)OC(C)(C)C)C(C)C)c1ccc(Oc2cc(-c3ccccc3)nc3cc(OC)ccc23)cc1)C(=O)NS(=O)(=O)c1ccccc1 (stereo partly specified) [NS3 Protease Inhibitor, 7]	0.29
CCC[C@H](NC(=O)[C@@H]1C[C@@H](Oc2cc(-c3ccccc3)nc3cc(OC)ccc23)CN1C(=O)[C@@H](NC(=O)OC(C)(C)C)C(C)C)C(=O)NS(=O)(=O)c1ccccc1 [NS3 Protease Inhibitor, 8]	0.17
CC(=O)N[C@H](C(=O)N[C@@H](CCC(=O)O)C(=O)N[C@@H](Cc1ccc2ccccc2c1)C(=O)N[C@@H](CS)C(=O)O)C1CCCCC1 [NS3 Protease Inhibitor, 5] (Ac-[Chg]E[2Nal]C-OH)	0.5
C=CC1C[C@]1(NC(=O)[C@@H]1C[C@@H](Oc2cc(-c3ccccc3)nc3cc(OC)ccc23)CN1C(=O)[C@@H](NC(=O)OC(C)(C)C)C(C)C)C(=O)O (stereo partly specified) [NS3 Protease Inhibitor, 9]	0.015
COc1ccc2c(O[C@@H]3C[C@@H](C(=O)NC4(C(=O)O)CC4)N(C(=O)[C@@H](NC(=O)OC(C)(C)C)C(C)C)C3)cc(-c3ccccc3)nc2c1 [NS3 Protease Inhibitor, 6]	1.1
O=C(O)CCC(=O)N[C@H](C(=O)N[C@@H](CCC(=O)O)C(=O)N[C@@H](CC1CCCCC1)C(=O)N[C@@H](CS)C(=O)O)C1CCCCC1 [NS3 Protease Inhibitor, 4] (Suc-[Chg]E[Cha]C-OH)	0.15
C=CC1C[C@]1(NC(=O)[C@@H]1C[C@@H](Oc2cc(-c3ccccc3)nc3cc(OC)ccc23)CN1C(=O)[C@@H](NC(=O)OC(C)(C)C)C(C)C)C(=O)NS(=O)(=O)c1ccccc1 (stereo partly specified) [NS3 Protease Inhibitor, 10]	0.00022
O=C(O)CCC(=O)N[C@H](C(=O)N[C@@H](CCC(=O)O)C(=O)N[C@@H](Cc1ccc2ccccc2c1)C(=O)N[C@@H](CS)C(=O)O)C1CCCCC1 [NS3 Protease Inhibitor, 2] (Suc-[Chg]E[2Nal]C-OH)	0.18
